Our source for the IC50 values is US10138229B2, “Heteroaromatic compounds as BTK inhibitors” (Boehringer Ingelheim International GmbH, priority 2012, dated 2018).

Experiment [1] addresses BTK (Homo sapiens (Human), UniProt Q06187). In words: Inhibition of B-cell activation measured by CD69 expression in primary CD19+ cells. The experiment is classed as cell-based. As to conditions: primary CD19+ cells stimulated with anti-human IgD, CD69 expression by flow cytometry. The procedure: Cells were collected and plated in a 96 flat bottom plate at a concentration of 2×10^5/well in RPMI media containing 10% FBS, rested for 1 hour at 37° c. Cells were treated with inhibitor in duplicates or vehicle control in 1% DMSO final concentration for 1 hour at 37° c., 5% CO2. […] B cells were analyzed by flow cytometry using a BD LSRII or BD FACsCanto Flow Cytometer. Viable cells were gated, and CD69 percentage was determined using FlowJo software.
On the technique in general: A flow cytometer gives signals particle by particle.

In experiment [2] the target is full-length human His-tagged BTK (Homo sapiens (Human), UniProt Q06187). The experiment in a line: BTK Assay (HTRF, Cisbio KinEASE-TK). The experiment is classed as biochemical. As to conditions: 6 nM BTK, 30 uM ATP, 15 min preincubation.
Procedure: An HTRF assay (Cisbio KinEASE-TK cat #62TKOPEC) was performed to quantitate the ability of test compounds to inhibit BTK mediated phosphorylation of substrate. Assays were assembled in 384 well plates where 6 nM of full-length human His-tagged BTK (Life Technologies cat # PV3587) and test compound at varying concentrations were preincubated for 15 minutes at 28° C. Then, 1 uM of TK substrate-biotin and 30 uM ATP were added and incubated for an additional 30 minutes at 28° C.
Experiment [3] concerns the target EGFR (Homo sapiens (Human), UniProt P00533). In words: Inhibition of EGFR autophosphorylation in A431 human epithelial cells stimulated with EGF. The experiment is classed as cell-based. As to conditions: EGF 60 ng/mL, phospho EGFR, read-out: A431 p-EGFR IC50. An excerpt:
The compounds described herein show a range of selectivities against EGFR as measured in cellular assays (BTK activity measured by CD69 expression in primary CD19^+ cells; EGFR activity measured by EGFR phosphorylation in A431 cells).
Inhibition of EGFR Autophosphorylation in A431 Human Epithelial Cells Stimulated with Epithelial Growth Factor
A431 cells (ATCC # CRL-1555 FZ) are thawed and plated in DMEM containing 10% FBS in a 384-well tissue culture treated plate at 15,000 cells/well. After incubating for 24 hours at 37° C., 5% CO2, the cells are treated with test compound (1% DMSO final concentration) and incubated for 16 hours at 37° C., 5% CO2. EGF (Millipore, 01-107) is added at a final concentration of 60 ng/mL and incubated for 10 minutes. The medium is removed, the cells are lysed, and phospho EGFR is measured (Meso Scale Diagnostics, N31CB-1).

Sequence of EGFR (P00533 25-1210): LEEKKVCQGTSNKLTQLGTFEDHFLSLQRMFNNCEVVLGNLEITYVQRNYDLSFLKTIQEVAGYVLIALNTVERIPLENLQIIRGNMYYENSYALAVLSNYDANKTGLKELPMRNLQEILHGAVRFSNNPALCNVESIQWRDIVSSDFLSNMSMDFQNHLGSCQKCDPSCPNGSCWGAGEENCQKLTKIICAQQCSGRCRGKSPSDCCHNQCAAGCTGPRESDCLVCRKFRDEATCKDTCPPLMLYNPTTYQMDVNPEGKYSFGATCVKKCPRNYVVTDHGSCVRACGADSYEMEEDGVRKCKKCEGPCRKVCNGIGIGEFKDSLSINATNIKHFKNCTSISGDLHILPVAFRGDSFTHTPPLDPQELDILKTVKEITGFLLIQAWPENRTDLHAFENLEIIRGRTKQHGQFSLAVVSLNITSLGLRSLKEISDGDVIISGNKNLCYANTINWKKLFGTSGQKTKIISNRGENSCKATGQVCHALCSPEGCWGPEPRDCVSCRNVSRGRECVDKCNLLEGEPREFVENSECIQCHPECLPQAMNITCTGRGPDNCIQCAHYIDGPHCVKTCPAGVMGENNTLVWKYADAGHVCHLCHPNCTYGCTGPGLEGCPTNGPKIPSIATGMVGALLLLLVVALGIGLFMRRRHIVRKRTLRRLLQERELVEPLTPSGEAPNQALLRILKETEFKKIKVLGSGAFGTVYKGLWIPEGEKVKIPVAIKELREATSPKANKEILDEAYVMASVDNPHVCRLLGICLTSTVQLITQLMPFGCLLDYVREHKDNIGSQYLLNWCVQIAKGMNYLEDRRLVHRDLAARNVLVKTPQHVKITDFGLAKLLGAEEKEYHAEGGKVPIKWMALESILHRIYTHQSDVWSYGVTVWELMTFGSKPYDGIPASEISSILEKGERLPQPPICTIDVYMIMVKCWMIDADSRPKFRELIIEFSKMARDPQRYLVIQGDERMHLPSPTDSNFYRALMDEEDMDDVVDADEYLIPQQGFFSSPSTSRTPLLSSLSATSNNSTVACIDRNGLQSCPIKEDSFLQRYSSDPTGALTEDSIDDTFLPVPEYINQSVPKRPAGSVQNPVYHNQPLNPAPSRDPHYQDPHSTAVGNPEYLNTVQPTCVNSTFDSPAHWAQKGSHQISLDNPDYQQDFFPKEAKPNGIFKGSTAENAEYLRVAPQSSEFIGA
Sequence of full-length human His-tagged BTK (Q06187 whole entry): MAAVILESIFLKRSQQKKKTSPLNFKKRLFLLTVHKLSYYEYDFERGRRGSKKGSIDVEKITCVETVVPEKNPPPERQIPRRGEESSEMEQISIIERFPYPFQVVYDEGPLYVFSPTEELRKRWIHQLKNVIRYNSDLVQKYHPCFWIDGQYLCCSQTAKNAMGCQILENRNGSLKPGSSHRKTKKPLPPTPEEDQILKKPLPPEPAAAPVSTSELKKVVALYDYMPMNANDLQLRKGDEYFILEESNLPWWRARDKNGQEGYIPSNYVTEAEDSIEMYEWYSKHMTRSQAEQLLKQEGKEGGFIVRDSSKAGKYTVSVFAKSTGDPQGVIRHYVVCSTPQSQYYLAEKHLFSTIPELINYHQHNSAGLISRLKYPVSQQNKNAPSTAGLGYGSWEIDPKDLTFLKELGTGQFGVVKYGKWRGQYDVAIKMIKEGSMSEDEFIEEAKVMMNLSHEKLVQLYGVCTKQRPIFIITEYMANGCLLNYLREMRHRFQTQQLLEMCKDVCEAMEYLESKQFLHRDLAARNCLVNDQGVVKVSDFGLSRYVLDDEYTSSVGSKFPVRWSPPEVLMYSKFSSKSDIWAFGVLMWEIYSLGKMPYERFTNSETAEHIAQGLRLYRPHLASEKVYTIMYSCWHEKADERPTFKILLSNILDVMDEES
Sequence of BTK (Q06187 whole entry): as above

Regarding `CC#CC(=O)N1CC[C@]2(C1)C[C@H](n1nc(-c3ccc(OCC(F)(F)F)cc3)c(C(N)=O)c1N)C2` [Example 164], the IC50 was determined as 1.5 nM in experiment [1], 0.5 nM in experiment [2] and 420 nM in experiment [3].
As for `C=CC(=O)N1CC[C@]2(C1)C[C@@H](n1nc(-c3ccc(Oc4ccccc4)cc3)c(C(N)=O)c1N)C2` [Example 81], the IC50 in experiment [1] was determined as 0.9 nM; in experiment [2], 0.79 nM; in experiment [3] it was 790 nM.
As for `C=CC(=O)N1CCC[C@@H](c2nc(-c3ccc(Oc4ccccc4)cc3)c(C(N)=O)[nH]2)C1` [Example 46], the IC50 is 2 nM in experiment [1], 1.2 nM in experiment [2] and 120 nM in experiment [3].
On the same counts, the results for `CC#CC(=O)N1CC[C@]2(C1)C[C@H](n1nc(-c3ccc(OC)cc3Cl)c(C(N)=O)c1N)C2` [Example 158] are 58 nM, 6.3 nM and above 10000 nM.
On the same counts, the results for `C=CC(=O)N1CC2(CC(n3nc(-c4ccc(OC5CC5)cc4)c(C(N)=O)c3N)C2)C1` [Example 112] are 41 nM, 6.7 nM and 5800 nM.
Consider `CC#CC(=O)N1CC2(CC(n3nc(-c4ccc(OCC(F)(F)F)cc4)c(C(N)=O)c3N)C2)C1` [Example 115], for which the IC50 in experiment [1] is 7.8 nM; in experiment [2], 3.5 nM; in experiment [3], 6400 nM.
Consider `CC#CC(=O)N1CC2(CC(n3nc(-c4ccc(Oc5ccccc5)cc4)c(C(N)=O)c3N)C2)C1` [Example 41], for which the IC50 in experiment [1] was 1 nM; in experiment [2], 0.73 nM; in experiment [3] it was 430 nM.
As to `CC#CC(=O)N1CC2(CC(n3nc(-c4ccc(OC(C)C)cc4)c(C(N)=O)c3N)C2)C1` [Example 106], the IC50 was 30 nM in experiment [1], 13 nM in experiment [2] and above 10000 nM in experiment [3].
Turning to `CC#CC(=O)N1CC[C@]2(C1)C[C@H](n1nc(-c3ccc(OC(F)(F)F)cc3)c(C(N)=O)c1N)C2` [Example 160], the IC50 was determined as 4.5 nM in experiment [1], 1.4 nM in experiment [2] and 1200 nM in experiment [3].
Consider `C=CC(=O)N1CCC[C@@H](n2nc(-c3ccc(Oc4ccccc4)cc3)c(C(N)=O)c2N)C1` [Example 54], for which the concentration for half-maximal inhibition (IC50) in experiment [3] is 6.6 nM.
As to `C=CC(=O)N1CC[C@]2(C1)C[C@H](n1nc(-c3ccc(OCC(F)(F)F)cc3)c(C(N)=O)c1N)C2` [Example 163], the IC50 worked out at 15 nM in experiment [1], 4.8 nM in experiment [2] and 5200 nM in experiment [3].
In the case of `CC#CC(=O)N1CC[C@]2(C1)C[C@@H](c1nc(-c3ccc(Oc4ccccc4)cc3)c(C(N)=O)s1)C2` [Example 78], the IC50 in experiment [1] was found to be 2.5 nM; in experiment [2] it was 2.1 nM; in experiment [3], 1800 nM.
Consider `C=CC(=O)N1CC[C@]2(C1)C[C@H](n1nc(-c3ccc(OCCC)c(F)c3)c(C(N)=O)c1N)C2` [Example 165], for which the IC50 in experiment [1] was 10 nM; in experiment [2] it was 15 nM; in experiment [3] it was 3700 nM.
On the same counts, the results for `C=CC(=O)N1CC[C@]2(C1)C[C@H](n1cc(C(N)=O)c(-c3ccc(Oc4ccccc4)cc3)n1)C2` [Example 40] are 20 nM, 4.9 nM and above 10000 nM.
For `CC#CC(=O)N1CC[C@]2(C1)C[C@H](n1nc(-c3ccc(OCCC)c(F)c3)c(C(N)=O)c1N)C2` [Example 161], the IC50 in experiment [1] amounted to 2.1 nM; in experiment [2], 1.1 nM; in experiment [3] it was 400 nM.
For `CC#CC(=O)N1CC2(CC(n3nc(-c4ccc(OCCC)cc4)c(C(N)=O)c3N)C2)C1` [Example 107], the IC50 in experiment [1] turned out to be 8.2 nM; in experiment [2] it was 3.3 nM; in experiment [3], 4200 nM.
Regarding `C=CC(=O)N1CC2(CC(n3cc(C(N)=O)c(-c4ccc(Oc5ccccc5)cc4)n3)C2)C1` [Example 28], the IC50 in experiment [1] was found to be 9 nM; in experiment [2], 3.5 nM; in experiment [3] it was 4700 nM.
Take `CC#CC(=O)N1CC[C@]2(C1)C[C@@H](n1cc(C(N)=O)c(-c3ccc(Oc4ccccc4)cc3)n1)C2` [Example 89]: 34 nM corresponded to half-maximal inhibition in experiment [2] (IC50).
Compound `C=CC(=O)N1CCC[C@H]1Cn1cc(C(N)=O)c(-c2ccc(Oc3ccccc3)cc2)n1` [Example 33] came in with an IC50 in experiment [2] of 9.7 nM.

As a reminder, the IC50 is the point on the concentration scale where inhibition reaches its midpoint.
